In brackets after ≈: the same amount, converted by molar mass. Activity calls are given as the source filed them. No cut-off for these calls is given here.
How the values were obtained:
Nakaseomyces glabratus = assay: Antifungal activity against Candida glabrata after 24 hrs by serial dilution method; format: functional
Candida parapsilosis = assay: Antifungal activity against Candida parapsilosis after 24 hrs by serial dilution method; format: functional; details: Lodderomyces parapsilosis
Nannizzia gypsea = assay: Antifungal activity against Microsporum gypseum after 72 hrs by serial dilution method; format: functional
Cryptococcus neoformans = assay: Antifungal activity against Cryptococcus neoformans after 72 hrs by serial dilution method; format: functional
Candida albicans [1] = assay: Antifungal activity against Candida albicans after 24 hrs by serial dilution method; format: functional
Trichophyton rubrum = assay: Antifungal activity against Trichophyton rubrum after 72 hrs by serial dilution method; format: functional
Candida albicans [2] = assay: Antifungal activity against Candida albicans SC5314 infected in Caenorhabditis elegans assessed as nematode survival at 16 ug/ml after 144 hrs by serial dilution method; format: functional; details: SC5314, 144 h
Candida albicans [3] = assay: Antifungal activity against Candida albicans SC5314 infected in Caenorhabditis elegans assessed as nematode survival at 32 ug/ml after 144 hrs by serial dilution method; format: functional, organism-based

| SMILES | MIC80 (Nakaseomyces glabratus) | MIC80 (Candida parapsilosis) | MIC80 (Nannizzia gypsea) | MIC80 (Cryptococcus neoformans) | MIC80 (Candida albicans [1]) | MIC80 (Trichophyton rubrum) | survival at 16 µg/mL (Candida albicans [2]) | Activity (Candida albicans [3]) |
| --- | --- | --- | --- | --- | --- | --- | --- | --- |
| O=C(Nc1nc2ccc(NC(=O)[C@@H]3CCC[C@H](NCC4CCc5ncccc5C4)C3)cc2s1)C1CCCC1 (relative stereo) | > 64 µg/mL | 64 µg/mL (≈ 120 µM) | > 64 µg/mL | > 64 µg/mL | 16 µg/mL (≈ 30.1 µM) | > 64 µg/mL |  |  |
| O=C(Nc1nc2ccc(NC(=O)[C@@H]3CCC[C@H](NCc4ccc5ccccc5n4)C3)cc2s1)C1CCCC1 (relative stereo) | > 64 µg/mL | > 64 µg/mL | > 64 µg/mL | > 64 µg/mL | > 64 µg/mL | > 64 µg/mL |  |  |
| O=C(Nc1nc2ccc(NC(=O)[C@@H]3CCC[C@H](NCc4cccc5ccccc45)C3)cc2s1)C1CCCC1 (relative stereo) | > 64 µg/mL | > 64 µg/mL | > 64 µg/mL | > 64 µg/mL | > 64 µg/mL | > 64 µg/mL |  |  |
| O=C(Nc1nc2ccc(NC(=O)[C@@H]3CCC[C@H](NCc4ccc5ccccc5c4Br)C3)cc2s1)C1CCCC1 (relative stereo) | > 64 µg/mL | > 64 µg/mL | 64 µg/mL (≈ 106 µM) | > 64 µg/mL | > 64 µg/mL | 64 µg/mL (≈ 106 µM) |  |  |
| COc1ccc2cc(CN[C@H]3CCC[C@@H](C(=O)Nc4ccc5nc(NC(=O)C6CCCC6)sc5c4)C3)ccc2c1 (relative stereo) | > 64 µg/mL | > 64 µg/mL | > 64 µg/mL | > 64 µg/mL | > 64 µg/mL | > 64 µg/mL |  |  |
| O=C(Nc1nc2ccc(NC(=O)[C@@H]3CCC[C@H](NCc4ccc5ccccc5c4)C3)cc2o1)C1CCCC1 (relative stereo) | > 64 µg/mL | > 64 µg/mL | 1 µg/mL (≈ 1.96 µM) | > 64 µg/mL | > 64 µg/mL | > 64 µg/mL |  |  |
| O=C(Nc1ccc2nc(NC(=O)[C@@H]3CCC[C@H](NCc4ccnc5ccccc45)C3)sc2c1)C1CCCC1 (relative stereo) | 16 µg/mL (≈ 30.3 µM) | > 64 µg/mL | > 64 µg/mL | 16 µg/mL (≈ 30.3 µM) | > 64 µg/mL | > 64 µg/mL |  |  |
| COc1ccc2ccccc2c1CN[C@H]1CCC[C@@H](C(=O)Nc2ccc3nc(NC(=O)C4CCCC4)sc3c2)C1 (relative stereo) | > 64 µg/mL | > 64 µg/mL | 64 µg/mL (≈ 115 µM) | > 64 µg/mL | > 64 µg/mL | 64 µg/mL (≈ 115 µM) |  |  |
| O=C(Nc1nc2ccc(NC(=O)[C@@H]3CCC[C@H](NCc4ccc5ncccc5c4)C3)cc2s1)C1CCCC1 (relative stereo) | 0.125 µg/mL (≈ 0.237 µM) | 4 µg/mL (≈ 7.58 µM) | > 64 µg/mL | 4 µg/mL (≈ 7.58 µM) | 4 µg/mL (≈ 7.58 µM) | 4 µg/mL (≈ 7.58 µM) | 60% |  |
| CCOc1ccc2ccccc2c1CN[C@H]1CCC[C@@H](C(=O)Nc2ccc3nc(NC(=O)C4CCCC4)sc3c2)C1 (relative stereo) | > 64 µg/mL | > 64 µg/mL | 64 µg/mL (≈ 112 µM) | > 64 µg/mL | > 64 µg/mL | 64 µg/mL (≈ 112 µM) |  |  |
| O=C(Nc1ccc2nc(NC(=O)[C@@H]3CCC[C@H](NCc4ccc5ccccc5c4)C3)sc2c1)C1CCCC1 (relative stereo) | 16 µg/mL (≈ 30.4 µM) | > 64 µg/mL | 32 µg/mL (≈ 60.8 µM) | 32 µg/mL (≈ 60.8 µM) | 8 µg/mL (≈ 15.2 µM) | 32 µg/mL (≈ 60.8 µM) |  |  |
| OC(Cn1cncn1)(Cn1cncn1)c1ccc(F)cc1F [FLUCONAZOLE] | 2 µg/mL (≈ 6.53 µM) | 2 µg/mL (≈ 6.53 µM) | 32 µg/mL (≈ 104 µM) | 16 µg/mL (≈ 52.2 µM) | 0.5 µg/mL (≈ 1.63 µM) | 4 µg/mL (≈ 13.1 µM) |  | Active |
| O=C(Nc1ccc2nc(NC(=O)[C@@H]3CCC[C@H](NCc4ccc5ccccc5n4)C3)sc2c1)C1CCCC1 (relative stereo) | > 64 µg/mL | > 64 µg/mL | 64 µg/mL (≈ 121 µM) | > 64 µg/mL | > 64 µg/mL | > 64 µg/mL |  |  |
| O=C(Nc1nc2ccc(NC(=O)[C@@H]3CCC[C@H](NCc4ccc5ccccc5c4)C3)cc2s1)C1CCCC1 (racemic) | > 64 µg/mL | > 64 µg/mL | > 64 µg/mL | > 64 µg/mL | 4 µg/mL (≈ 7.59 µM) | > 64 µg/mL |  |  |
| O=C(Nc1ccc2nc(NC(=O)[C@@H]3CCC[C@H](NCc4cnc5ccccc5c4)C3)sc2c1)C1CCCC1 (relative stereo) | > 64 µg/mL | > 64 µg/mL | 64 µg/mL (≈ 121 µM) | > 64 µg/mL | > 64 µg/mL | > 64 µg/mL |  |  |
| COc1ccc(CN[C@H]2CCC[C@@H](C(=O)Nc3ccc4nc(NC(=O)C5CCCC5)sc4c3)C2)c2ccccc12 (relative stereo) | > 64 µg/mL | > 64 µg/mL | > 64 µg/mL | > 64 µg/mL | > 64 µg/mL | > 64 µg/mL |  |  |
| O=C(Nc1nc(-c2ccc(NC(=O)[C@H]3CCC[C@@H](NCc4ccc5ccccc5c4)C3)cc2)cs1)C1CCCC1 (relative stereo) | > 64 µg/mL | > 64 µg/mL | 0.125 µg/mL (≈ 0.226 µM) | > 64 µg/mL | > 64 µg/mL | 32 µg/mL (≈ 57.9 µM) |  |  |
| O=C(Nc1nc2ccc(NC(=O)[C@@H]3CCC[C@H](NCc4cc5ccccc5nc4Cl)C3)cc2s1)C1CCCC1 (relative stereo) | > 64 µg/mL | > 64 µg/mL | > 64 µg/mL | > 64 µg/mL | > 64 µg/mL | > 64 µg/mL |  |  |
| O=C(Nc1ccc2nc(NC(=O)[C@@H]3CCC[C@H](NCc4ccc5ncccc5c4)C3)sc2c1)C1CCCC1 (relative stereo) | > 64 µg/mL | > 64 µg/mL | 32 µg/mL (≈ 60.6 µM) | > 64 µg/mL | > 64 µg/mL | > 64 µg/mL |  |  |
| O=C(Nc1nc2ccc(NC(=O)[C@@H]3CCC[C@H](NCc4cnc5ccccc5c4)C3)cc2s1)C1CCCC1 | > 64 µg/mL | 8 µg/mL (≈ 15.2 µM) | > 64 µg/mL | 4 µg/mL (≈ 7.58 µM) | 8 µg/mL (≈ 15.2 µM) | 8 µg/mL (≈ 15.2 µM) |  |  |
| O=C(Nc1nc2ccc(NC(=O)[C@@H]3CCC[C@H](NCc4cccc5cccnc45)C3)cc2s1)C1CCCC1 (relative stereo) | > 64 µg/mL | > 64 µg/mL | > 64 µg/mL | > 64 µg/mL | > 64 µg/mL | > 64 µg/mL |  |  |
| O=C(Nc1nc2ccc(NC(=O)[C@@H]3CCC[C@H](NCC4CNc5ccccc5C4)C3)cc2s1)C1CCCC1 (relative stereo) | > 64 µg/mL | > 64 µg/mL | 64 µg/mL (≈ 120 µM) | > 64 µg/mL | 32 µg/mL (≈ 60.2 µM) | > 64 µg/mL |  |  |
| O=C(Nc1nc2ccc(NC(=O)[C@@H]3CCC[C@H](NCc4ccc5ccccc5n4)C3)cc2o1)C1CCCC1 (relative stereo) | > 64 µg/mL | > 64 µg/mL | 1 µg/mL (≈ 1.95 µM) | > 64 µg/mL | > 64 µg/mL | > 64 µg/mL |  |  |
| O=C(Nc1nc2ccc(NC(=O)[C@@H]3CCC[C@H](NCc4ccnc5ccccc45)C3)cc2s1)C1CCCC1 (relative stereo) | > 64 µg/mL | > 64 µg/mL | 16 µg/mL (≈ 30.3 µM) | > 64 µg/mL | > 64 µg/mL | > 64 µg/mL |  |  |
